According to ChEMBL document CHEMBL1150951, “New mycalolides from the marine sponge Mycale magellanica and their interconversion” (J Nat Prod, 1998):
Values after ≈ are worked out from the molar mass of the structure shown.

test system: L1210; experiment: Cytotoxicity against mouse L1210 cells; type: functional, cell-based

| SMILES | IC50 |
| --- | --- |
| CO[C@H]1C/C=C/c2nc(co2)-c2nc(co2)-c2nc(co2)[C@@H](OC)[C@@H](C)C(=O)/C=C/C[C@H](O)CC(=O)O[C@@H](C[C@H](OC)[C@@H](C)CCC(O)[C@@H](C)[C@H](OC(C)=O)[C@H](C)/C=C/N(C)C=O)[C@@H]1C (stereo partly drawn) [30-HYDROXYMYCALOLIDE A] | 0.019 µg/mL (≈ 0.0209 µM) |
| CO[C@H]1C/C=C/c2nc(co2)-c2nc(co2)-c2nc(co2)[C@@H](OC)[C@@H](C)C(=O)/C=C/C[C@H](O)CC(=O)O[C@@H](C[C@H](OC)[C@@H](C)CCC(=O)[C@@H](C)[C@H](O)[C@H](C)/C=C/N(C)C=O)[C@@H]1C [32-HYDROXYMYCALOLIDE A] | 0.013 µg/mL (≈ 0.015 µM) |
| COC(CO)C(=O)O[C@H](CC[C@H](C)[C@H](C[C@@H]1OC(=O)C[C@@H](O)C/C=C/C(=O)[C@H](C)[C@H](OC)c2coc(n2)-c2coc(n2)-c2coc(n2)/C=C/C[C@H](OC)[C@H]1C)OC)[C@H](C)[C@H](OC(C)=O)[C@H](C)/C=C/N(C)C=O (stereo partly drawn) [38-HYDROXYMYCALOLIDE B] | 0.015 µg/mL (≈ 0.0148 µM) |
